The values below come from PubChem BioAssay (NCI).

Test systems include SW-620 colon; SK-OV-3 ovarian; SK-MEL-2 melanoma; HCT-116 colon; SF-539 CNS; COLO 205 colon; MOLT-4 leukemia; HCT-15 colon; SR leukemia; 786-0 renal; KM12 colon; UO-31 renal; ACHN renal; DU-145 prostate; SF-268 CNS; MDA-N; A549 NSCLC; HOP-62 NSCLC; UACC-257 melanoma; CAKI-1 renal.
Common to all, as to experiment: inhibition of tumour cell growth, NCI panel, 48 h

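Assay format: 96-well plates, 48-hour exposure. TGI is the concentration that stops growth completely.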

On to `O=c1cc(-c2cccc(Br)c2)[nH]c2cc3c(cc12)OCO3`, for which the TGI with SW-620 colon was greater than 100 µM; with SK-OV-3 ovarian, 17 µM; in the assay on SK-MEL-2 melanoma, 6.67 µM; in the assay with HCT-116 colon it was 13.3 µM; with SF-539 CNS, 6.58 µM; with COLO 205 colon, greater than 100 µM. Moreover, the TGI is greater than 100 µM in the assay with MOLT-4 leukemia; greater than 77.6 µM in the assay on HCT-15 colon; greater than 100 µM with SR leukemia; 12.9 µM in the assay with 786-0 renal; 25.4 µM in the assay on KM12 colon; 37.9 µM in the assay with UO-31 renal. Also, the TGI came to 24.4 µM with ACHN renal; 18.1 µM with DU-145 prostate; 24 µM in the assay on SF-268 CNS; 2 µM in the assay with MDA-N; 25.2 µM in the assay on A549 NSCLC; 4.8 µM in the assay on HOP-62 NSCLC. Besides, the TGI in the assay with UACC-257 melanoma is greater than 100 µM.
As to `O=c1c2cc([N+](=O)[O-])cnc2sn1-c1ccc(Br)cc1`, the TGI in the assay with SW-620 colon was greater than 100 µM; in the assay with SK-OV-3 ovarian, 99 µM; with SK-MEL-2 melanoma it was 85.5 µM; in the assay on HCT-116 colon, 59.3 µM; in the assay on SF-539 CNS, greater than 100 µM; in the assay with COLO 205 colon it was greater than 100 µM. The TGI is 90.3 µM in the assay with MOLT-4 leukemia; greater than 100 µM in the assay with HCT-15 colon; 60.7 µM in the assay with SR leukemia; greater than 100 µM in the assay on 786-0 renal; greater than 100 µM in the assay with KM12 colon; greater than 100 µM in the assay with UO-31 renal. In addition, the TGI in the assay with ACHN renal is greater than 100 µM; in the assay with DU-145 prostate it was greater than 100 µM; with SF-268 CNS, 75.1 µM; in the assay on MDA-N, greater than 100 µM; in the assay on A549 NSCLC it was greater than 100 µM; with HOP-62 NSCLC it was greater than 100 µM. Moreover, the TGI in the assay with UACC-257 melanoma is greater than 100 µM.
Regarding `COc1cc(C2S/C(=C/c3ccccc3)C(=O)N2c2ccccn2)cc(OC)c1OC` (configuration not stated), the TGI in the assay on SW-620 colon is 64.3 µM; in the assay with SK-OV-3 ovarian, greater than 90.6 µM; with SK-MEL-2 melanoma it was greater than 71.3 µM; in the assay on CAKI-1 renal, 52.3 µM; with HCT-116 colon, 20.6 µM; in the assay on COLO 205 colon it was greater than 78.8 µM. Further, the TGI was greater than 100 µM with MOLT-4 leukemia; 36.4 µM in the assay with HCT-15 colon; greater than 100 µM in the assay with SR leukemia; 31.4 µM in the assay with 786-0 renal; 29.4 µM with KM12 colon; 28.8 µM with UO-31 renal. The TGI is 29.8 µM with ACHN renal; 31.9 µM with DU-145 prostate; 36.2 µM in the assay on SF-268 CNS; 34.4 µM in the assay with MDA-N; greater than 64 µM in the assay with A549 NSCLC; 48.8 µM in the assay with HOP-62 NSCLC. This compound returned a TGI with UACC-257 melanoma greater than 100 µM.
In the case of `CCCC(=O)Oc1cc(OC(=O)CCC)c2c(C)cc(=O)oc2c1`, the TGI in the assay on SW-620 colon, in the assay on SK-OV-3 ovarian, in the assay with SK-MEL-2 melanoma, in the assay on HCT-116 colon, with SF-539 CNS and with COLO 205 colon was greater than 100 µM in each case. In addition, the TGI was greater than 100 µM with MOLT-4 leukemia; greater than 100 µM in the assay on HCT-15 colon; 76.9 µM with SR leukemia; greater than 100 µM in the assay on 786-0 renal; greater than 100 µM with KM12 colon; greater than 100 µM in the assay with UO-31 renal. Further, the TGI with ACHN renal, in the assay with DU-145 prostate, in the assay with SF-268 CNS, in the assay on MDA-N, in the assay on A549 NSCLC and with HOP-62 NSCLC was greater than 100 µM in each case. This compound returned a TGI with UACC-257 melanoma greater than 100 µM.
For `NNC(=O)CSc1nnc(CCCCCCCCc2nnc(SCC(=O)NN)o2)o1`, the TGI with SW-620 colon, in the assay with SK-OV-3 ovarian, with SK-MEL-2 melanoma, in the assay on CAKI-1 renal, in the assay with HCT-116 colon and in the assay on COLO 205 colon was greater than 100 µM throughout. Further, the TGI in the assay with MOLT-4 leukemia, in the assay on HCT-15 colon, with SR leukemia, with 786-0 renal, in the assay on KM12 colon and with UO-31 renal was greater than 100 µM in each case. The TGI with ACHN renal, in the assay on DU-145 prostate, with SF-268 CNS, in the assay on MDA-N, with A549 NSCLC and in the assay on HOP-62 NSCLC was greater than 100 µM throughout. The compound further came in with a TGI with UACC-257 melanoma greater than 100 µM.
For `CCCNC(=O)c1cc(NC(=O)c2cc(NC(=O)CCS(=O)(=O)OC)cn2C)cn1C`, the TGI in the assay on SW-620 colon is greater than 100 µM; in the assay with SK-OV-3 ovarian, 22.8 µM; with SK-MEL-2 melanoma it was 53.8 µM; in the assay with CAKI-1 renal, greater than 75.3 µM; in the assay on HCT-116 colon it was greater than 69.8 µM; in the assay with COLO 205 colon, 22.7 µM. Besides, the TGI was greater than 87.8 µM with MOLT-4 leukemia; greater than 100 µM in the assay on HCT-15 colon; greater than 100 µM in the assay on SR leukemia; greater than 71.7 µM in the assay with 786-0 renal; greater than 61.5 µM in the assay with KM12 colon; greater than 100 µM in the assay on UO-31 renal. In addition, the TGI was greater than 100 µM in the assay on ACHN renal; 72.2 µM in the assay with DU-145 prostate; greater than 69.8 µM in the assay with MDA-N; greater than 100 µM with A549 NSCLC; greater than 53.1 µM in the assay with HOP-62 NSCLC; 53.5 µM in the assay with UACC-257 melanoma.
With `Cc1cccc(/C=C2\CCCCCC2=O)c1`, the TGI in the assay with SW-620 colon, in the assay with SK-OV-3 ovarian, in the assay on SK-MEL-2 melanoma, in the assay on CAKI-1 renal, in the assay with HCT-116 colon and in the assay on COLO 205 colon was greater than 100 µM throughout. Also, the TGI in the assay on MOLT-4 leukemia, with HCT-15 colon, in the assay on SR leukemia, in the assay on 786-0 renal, in the assay on KM12 colon and in the assay with UO-31 renal was greater than 100 µM each time. Moreover, the TGI in the assay with ACHN renal, with DU-145 prostate, in the assay on SF-268 CNS, in the assay on MDA-N, with A549 NSCLC and in the assay on HOP-62 NSCLC was greater than 100 µM each time. The compound also returned a TGI in the assay on UACC-257 melanoma greater than 100 µM.
